Reference: ChEMBL document CHEMBL5252629, “The protein disulfide isomerase inhibitor 3-methyltoxoflavin inhibits Chikungunya virus” (Bioorg Med Chem, 2023)
In brackets after ≈: the same amount, converted by molar mass.

Legend:
Chikungunya virus [1] = assay: Antiviral activity against CHIKV infected in hamster BHK-21 cells assessed as inhibition of viral replication at 20 uM measured after 48 hrs by renilla luciferase assay relative to control; assay type: functional; set-up: scale not given: the % may be the effect or the level left
Chikungunya virus [2] = assay: Antiviral activity against CHIKV infected in human foreskin fibroblast cells; assay type: functional, organism-based
Chikungunya virus [3] = assay: Antiviral activity against CHIKV-ZsGreen infected in African green monkey Vero incubated for 24 hrs by flow cytometry analysis; assay type: functional, organism-based
[4] = Selectivity index, ratio of CC50 for hamster BHK-21 cells to EC50 for CHIKV infected in hamster BHK-21 cells; assay type: toxicity, cell-based; settings: read-out: Ratio CC50/EC50
Chikungunya virus [5] = assay: Antiviral activity against CHIKV infected in hamster BHK-21 cells assessed as inhibition of viral replication measured after 48 hrs by gaussia luciferase assay; assay type: functional, organism-based; settings: BHK-21, 48 h
Chikungunya virus [6] = assay: Antiviral activity against CHIKV S27 infected in Huh-7 cells assessed as reduction in cytopathic effect; assay type: functional, organism-based; settings: S27, Huh-7
Huh-7 [7] = assay: Cytotoxicity against human Huh-7 cells assessed as reduction in cell viability incubated for 48 hrs by MTT assay; assay type: functional
[8] = Selectivity index, ratio of CC50 for human Huh-7 cells to EC50 for Yellow fever virus 17D assessed as reduction in cytopathic effect by neutral red staining based analysis; assay type: toxicity; settings: read-out: Ratio CC50/EC50
[9] = Apparent permeability of the compound across basolateral side to apical side in human Caco-2 cells assessed as drug recovery; assay type: ADME, cell-based
Chikungunya virus [10] = assay: Antiviral activity against CHIKV S27 infected in Vero 76 cells assessed as reduction in cytopathic effect by neutral red staining based analysis; assay type: functional, organism-based; settings: S27, Vero 76
Yellow fever virus [11] = assay: Antiviral activity against Yellow fever virus 17D infected in Huh-7 cells assessed as reduction in cytopathic effect by neutral red staining based analysis; assay type: functional, organism-based
[12] = Kinetic solubility of the compound in FaSSIF at pH 6.8 by LCMS analysis; assay type: ADME; settings: read-out: Kinetic_solubility
Chikungunya virus [13] = assay: Antiviral activity against CHIKV S27 infected in Vero 76 cells assessed as reduction in cytopathic effect; assay type: functional; settings: S27, Vero 76
[14] = Inhibition of N-terminal His-tagged human PDI expressed in Escherichia coli BL21 (DE3) incubated for 1 hr
Yellow fever virus [15] = assay: Antiviral activity against Yellow fever virus 17D infected in Huh-7 cells assessed as reduction in cytopathic effect; assay type: functional, organism-based
[16] = Metabolic stability in human liver microsomes assessed as hepatic clearance preincubated for 5 mins followed by NADPH addition and measured after 20 mins by LCMS analysis; assay type: ADME, Microsome; settings: time 25 min
Vero 76 = assay: Cytotoxicity against African green monkey Vero 76 cells assessed as reduction in cell viability incubated for 48 hrs by MTT assay; assay type: toxicity, cell-based; settings: chlorocebus sabaeus, vero 76, 48 h
[17] = Kinetic solubility of the compound in FaSSGF at pH 1.2 by LCMS analysis; assay type: ADME; settings: read-out: Kinetic_solubility
HepG2 = assay: Cytotoxicity against human HepG2 cells assessed as reduction in cell viability measured after 48 hrs by MTT assay; assay type: functional
[18] = Selectivity index, ratio of CC50 for human Huh-7 cells to EC50 for CHIKV S27 infected in Huh-7 cells assessed as reduction in cytopathic effect by neutral red staining based analysis; assay type: toxicity, cell-based; settings: read-out: Ratio CC50/EC50
[19] = Apparent permeability of the compound across apical side to basolateral side in human Caco-2 cells; assay type: ADME, cell-based
Huh-7 [20] = assay: Cytotoxicity against human Huh-7 cells infected with yellow fever virus assessed as reduction in cell viability incubated for 48 hrs by MTT assay; assay type: functional
[21] = Metabolic stability in mouse liver microsomes assessed as intrinsic clearance at 100 uM preincubated for 5 mins followed by NADPH addition and measured upto 60 mins by LCMS analysis; assay type: ADME, Microsome; settings: time < 65 min, read-out: CLH
Chikungunya virus [22] = assay: Antiviral activity against CHIKV S27 infected in Huh-7 cells assessed as reduction in cytopathic effect by neutral red staining based analysis; assay type: functional, organism-based; settings: S27, Huh-7
[23] = Kinetic solubility of the compound in buffer at pH 7.4 by LCMS analysis; assay type: physicochemical; settings: read-out: Kinetic_solubility
[24] = Selectivity index, ratio of CC50 for human Huh-7 cells to EC50 for CHIKV S27 infected in Huh-7 cells; assay type: toxicity, cell-based; settings: read-out: Ratio CC50/EC50
Huh-7 [25] = assay: Cytotoxicity against human Huh-7 cells assessed as reduction in cell viability measured after 48 hrs by MTT assay; assay type: functional
BHK-21 = assay: (§1) Cytotoxicity against hamster BHK-21 cells assessed as reduction in cell viability measured after 48 hrs by MTT assay; assay type: toxicity, cell-based, Mesocricetus auratus; settings: bhk-21, 48 h
[26] = Apparent permeability of the compound across apical side to basolateral side in human Caco-2 cells assessed as drug recovery; assay type: ADME, cell-based
[27] = Selectivity index, ratio of CC50 for human Huh-7 cells to EC50 for Yellow fever virus 17D; assay type: toxicity; settings: read-out: Ratio CC50/EC50
Chikungunya virus [28] = assay: Antiviral activity against CHIKV infected in hamster BHK-21 cells; assay type: functional, organism-based
Chikungunya virus [29] = assay: Antiviral activity against CHIKV infected in […] Huh-7 cells; assay type: functional, organism-based
[30] = as §1; assay type: toxicity, cell-based, Mesocricetus auratus; settings: BHK-21 cells
Chikungunya virus [31] = assay: Antiviral activity against CHIKV infected in African green monkey Vero cells; assay type: functional, organism-based

Cc1cc(C)nc(NS(=O)(=O)c2ccc(NC(=O)CN3C(=O)C4CC=CCC4C3=O)cc2)n1 (stereo not drawn)
Activity (Chikungunya virus [1]): 100%

COc1ccc(C(=O)/C=C/c2ccc(O)cc2)c(O)c1CC=C(C)C
Activity (Chikungunya virus [1]): 13.5%

O=C(C1CC1)N1CCN(Cn2sc3ccccc3c2=O)CC1
Activity (Chikungunya virus [1]): 14%

CC(C)n1ncc2c1N=C(O)CC2c1ccc(-c2ccc(C(=O)O)cc2)o1 (stereo not drawn)
Activity (Chikungunya virus [1]): 100%

O=C(O)c1ccc(S(=O)(=O)Nc2ccc(S(=O)(=O)Nc3ccccn3)cc2)cc1
Activity (Chikungunya virus [1]): 100%

O=C1CC(c2ccc(S(=O)(=O)Nc3ccccc3C(=O)Nc3ccc(F)cc3)cc2)CN1 (stereo not drawn)
Activity (Chikungunya virus [1]): 100%

O=C(O)c1nc(=O)[nH]c2ccccc12
IC50 (Chikungunya virus [2]): 23000 nM

Cc1nc(C)c(CN2CCCC(C(=O)Nc3cccc(-n4cnnn4)c3)C2)nc1C (stereo not drawn)
Activity (Chikungunya virus [1]): 100%

NC(=O)C1CCN(c2nc3c(c(=O)[nH]2)C(C(=O)Nc2ccccc2Cl)CC(=O)N3)CC1 (stereo not drawn)
Activity (Chikungunya virus [1]): 140%

Cc1cc([N+](=O)[O-])ccc1-c1ccc(C2N=C(O)c3c(sc4c3CCN(C)C4)N2)o1 (stereo not drawn)
Activity (Chikungunya virus [1]): 100%

OC(CNC1CCN(Cc2ccccc2)CC1)COc1ccccc1 (stereo not drawn)
EC50 (Chikungunya virus [3]): 1600 nM

Cn1c(=O)[nH]c2ccc(S(=O)(=O)NCCCOC34CC5CC(CC(C5)C3)C4)cc2c1=O
Activity (Chikungunya virus [1]): 100%

Cc1nc2c(=O)n(C)c(=O)nc-2n(C)n1
selectivity ratio [4]: 30.8
EC50 (Chikungunya virus [5]): 200 nM
EC50 (Chikungunya virus [6]): 190 nM
CC50 (Huh-7 [7]): 1100 nM
selectivity ratio [8]: 2.9
Drug recovery [9]: 93.5%
EC50 (Chikungunya virus [10]): > 1700 nM
EC50 (Yellow fever virus [11]): 420 nM
solubility kinetic [12]: 228 µM (≈ 47.1 µg/mL)
EC90 (Chikungunya virus [13]): > 1700 nM
IC50 [14]: 170 nM
EC50 (Yellow fever virus [15]): 370 nM
CLhep predicted [16]: < 6.1 mL/min/kg
CC50 (Vero 76): 1700 nM
solubility kinetic [17]: 424 µM (≈ 87.7 µg/mL)
CC50 (HepG2): 11000 nM
selectivity ratio [18]: > 11
Papp [19]: 17.8 10^-6 cm/s
CC50 (Huh-7 [20]): 1200 nM
Activity (Chikungunya virus [1]): 2%
microsomal CLint at 100 µM [21]: 7.4 µL/min/mg
EC50 (Chikungunya virus [22]): < 100 nM
solubility kinetic [23]: 400 µM (≈ 82.8 µg/mL)
selectivity ratio [24]: 17
CC50 (Huh-7 [25]): 3200 nM
CC50 (BHK-21): 6200 nM
Drug recovery [26]: 103%
selectivity ratio [27]: 3.2

CC(=O)c1ccc(S(=O)(=O)NC(=O)NC2CCCCC2)cc1 [ACETOHEXAMIDE]
Activity (Chikungunya virus [1]): 100%

CCN(CC)Cc1cc(Nc2ccnc3cc(Cl)ccc23)ccc1O [AMODIAQUINE]
Activity (Chikungunya virus [1]): 19%

CN1[C@@H]2CC[C@H]1C[C@@H](OC(=O)C(CO)c1ccccc1)C2 (stereo partly drawn) [ATROPINE]
Activity (Chikungunya virus [1]): 149.2%

COc1c(O)cc2c(c1O)[C@@H]1O[C@H](CO)[C@@H](O)[C@H](O)[C@H]1OC2=O [BERGENIN]
Activity (Chikungunya virus [1]): 100%

C[C@@H]1C[C@H]2[C@@H]3CCC4=CC(=O)C=C[C@]4(C)[C@@]3(F)[C@@H](O)C[C@]2(C)[C@@]1(O)C(=O)CO [DEXAMETHASONE]
Activity (Chikungunya virus [1]): 70.9%

C=CCc1ccc(OC)cc1 [ESTRAGOLE]
Activity (Chikungunya virus [1]): 100%

C=CCc1ccc(O)c(OC)c1 [EUGENOL]
Activity (Chikungunya virus [1]): 100%

OCCN1CCN(CCCN2c3ccccc3Sc3ccc(C(F)(F)F)cc32)CC1 [FLUPHENAZINE]
Activity (Chikungunya virus [1]): 11.6%

O=C1OC(CN2CCOCC2)CN1/N=C/c1ccc([N+](=O)[O-])o1 (stereo not drawn) [FURALTADONE]
Activity (Chikungunya virus [1]): 20.4%

O=C(CCCN1CCC(O)(c2ccc(Cl)cc2)CC1)c1ccc(F)cc1 [HALOPERIDOL]
Activity (Chikungunya virus [1]): 40.5%

CCC(C)n1ncn(-c2ccc(N3CCN(c4ccc(OCC5COC(Cn6cncn6)(c6ccc(Cl)cc6Cl)O5)cc4)CC3)cc2)c1=O (stereo not drawn) [ITRACONAZOLE]
EC50 (Chikungunya virus [28]): 320 nM

CCCCCc1c2c(cc(O)c1C(=O)O)OC(=O)c1c(cc(OC)cc1C(=O)CCCC)O2 [LOBARIC ACID]
EC50 (Chikungunya virus [29]): 5300 nM

CCCCN(CCCC)CC(O)c1cc(Cl)cc2c1-c1ccc(Cl)cc1/C2=C/c1ccc(Cl)cc1 (stereo not drawn) [LUMEFANTRINE]
Activity (Chikungunya virus [1]): 100%

C=CCN1CC[C@]23c4c5ccc(O)c4O[C@H]2C(=O)CC[C@@]3(O)[C@H]1C5 [NALOXONE]
Activity (Chikungunya virus [1]): 121.5%

CCCCCCCCCCC[C@@H](C[C@@H]1OC(=O)[C@H]1CCCCCC)OC(=O)[C@H](CC(C)C)NC=O [ORLISTAT]
Activity (Chikungunya virus [1]): 48.7%

c1ccc2c(c1)Nc1ccccc1S2 [PHENOTHIAZINE]
Activity (Chikungunya virus [1]): 73.7%

NC(=O)C1(N2CCCCC2)CCN(CCCC(=O)c2ccc(F)cc2)CC1 [PIPAMPERONE]
Activity (Chikungunya virus [1]): 102.9%

Clc1ccc2c(N3CCN(CCCN4CCN(c5ccnc6cc(Cl)ccc56)CC4)CC3)ccnc2c1 [PIPERAQUINE]
Activity (Chikungunya virus [1]): 138.1%

CN(C)CCCN1c2ccccc2Sc2ccccc21 [PROMAZINE]
Activity (Chikungunya virus [1]): 18%

CCN(CC)CCCC(C)Nc1c2ccc(Cl)cc2nc2ccc(OC)cc12 (stereo not drawn) [QUINACRINE]
selectivity ratio [4]: 1.6
EC50 (Chikungunya virus [5]): 12000 nM
Activity (Chikungunya virus [1]): 12.5%
CC50 at 48 h [30]: 19800 nM

Cc1nnc(C(=O)NC(C)(C)c2nc(C(=O)NCc3ccc(F)cc3)c(O)c(=O)n2C)o1 [RALTEGRAVIR]
Activity (Chikungunya virus [1]): 58.9%

O=P(O)(O)C(O)(Cc1cccnc1)P(=O)(O)O [RISEDRONIC ACID]
Activity (Chikungunya virus [1]): 86.7%

OCc1ccccc1O[C@@H]1O[C@H](CO)[C@@H](O)[C@H](O)[C@H]1O [SALICIN]
Activity (Chikungunya virus [1]): 100%

CCN(CC)CCOc1ccc2c(c1)C(=O)c1cc(OCCN(CC)CC)ccc1-2 [TILORONE]
EC50 (Chikungunya virus [31]): 4200 nM
Activity (Chikungunya virus [1]): 100%

CC(C)=CCC/C(C)=C/Cc1c(O)ccc(C(=O)/C=C/c2ccc(O)cc2)c1O [XANTHOANGELOL]
selectivity ratio [4]: 1.7
EC50 (Chikungunya virus [5]): 7100 nM
Activity (Chikungunya virus [1]): 8.4%
CC50 at 48 h [30]: 11800 nM

O=C1Cc2cc(CCN3CCN(c4nsc5ccccc45)CC3)c(Cl)cc2N1 [ZIPRASIDONE]
Activity (Chikungunya virus [1]): 101%
